Measured values as given in ChEMBL document CHEMBL4840329, “Antibiotic Dixiamycins from a Cold-Seep-Derived Streptomyces olivaceus” (2021).
Values after ≈ are worked out from the molar mass of the structure shown.

How the values were obtained:
[1] = tested on: Staphylococcus aureus; assay: Anti-MDR bacterial activity against Staphylococcus aureus CCARM 3090 assessed as inhibition of bacterial growth incubated for 18 hrs by microplate reader analysis; type: functional
[2] = tested on: Enterococcus faecalis; assay: Anti-MDR bacterial activity against Enterococcus faecalis CCARM 5172 assessed as inhibition of bacterial growth incubated for 18 hrs by microplate reader analysis; type: functional
[3] = tested on: Enterococcus faecium; assay: Anti-MDR bacterial activity against Enterococcus faecium CCARM 5203 assessed as inhibition of bacterial growth incubated for 18 hrs by microplate reader analysis; type: functional
[4] = tested on: Micrococcus luteus; assay: Anti-MDR bacterial activity against Micrococcus luteus ML01 assessed as inhibition of bacterial growth incubated for 18 hrs by microplate reader analysis; type: functional
[5] = tested on: Pseudomonas aeruginosa; assay: Anti-MDR bacterial activity against Pseudomonas aeruginosa 15690 assessed as inhibition of bacterial growth incubated for 18 hrs by microplate reader analysis; type: functional
[6] = tested on: Escherichia coli; assay: Anti-MDR bacterial activity against Escherichia coli CCARM 1009 assessed as inhibition of bacterial growth incubated for 18 hrs by microplate reader analysis; type: functional
[7] = tested on: Salmonella typhimurium; assay: Anti-MDR bacterial activity against Salmonella typhimurium CCARM 8250 assessed as inhibition of bacterial growth incubated for 18 hrs by microplate reader analysis; type: functional, Salmonella enterica subsp. enterica serovar Typhimurium; settings: Salmonella enterica
[8] = Staphylococcus aureus, CCARM 3090, 18 h, read-out: MIC
[9] = Enterococcus faecalis, CCARM 5172, 18 h, read-out: MIC
[10] = Enterococcus faecium, CCARM 5203, 18 h, read-out: MIC
[11] = Micrococcus luteus, ML01, 18 h, read-out: MIC
[12] = Pseudomonas aeruginosa, 15690, 18 h, read-out: MIC

| SMILES | MIC [1, 8] | MIC [2, 9] | MIC [3, 10] | MIC [4, 11] | MIC [5, 12] | MIC [6] | MIC [7] | MIC ([1]; 18 h) | MIC ([2]; 18 h) | MIC ([3]; 18 h) | MIC ([4]; 18 h) | MIC [5] | MIC ([5]; 18 h) | MIC [4] | MIC ([1]; Staphylococcus aureus, CCARM 3090, read-out: MIC) |
| --- | --- | --- | --- | --- | --- | --- | --- | --- | --- | --- | --- | --- | --- | --- | --- |
| C[C@@]1(C(=O)O)[C@@H](O)CC[C@]2(C)c3cc4c(cc3CC[C@@H]12)[nH]c1ccc(S(=O)(=O)c2c3c(cc5c2[nH]c2ccccc25)[C@@]2(C)CC[C@H](O)[C@@](C)(C(=O)O)[C@@H]2CC3)cc14 | 12.5 µg/mL (≈ 15.8 µM) | > 12.5 µg/mL | 6.25 µg/mL (≈ 7.92 µM) | > 12.5 µg/mL | > 12.5 µg/mL | > 12.5 µg/mL | > 12.5 µg/mL | – | – | – | – | – | – | – | – |
| C[C@@]1(C(=O)O)[C@@H](O)CC[C@]2(C)c3cc4c(cc3CC[C@@H]12)[nH]c1ccc(-n2c3ccccc3c3cc5c(cc32)CC[C@H]2[C@](C)(C(=O)O)[C@@H](O)CC[C@]52C)cc14 | 0.78 µg/mL (≈ 1.08 µM) | 3.12 µg/mL (≈ 4.3 µM) | 1.56 µg/mL (≈ 2.15 µM) | 3.12 µg/mL (≈ 4.3 µM) | 0.78 µg/mL (≈ 1.08 µM) | > 12.5 µg/mL | > 12.5 µg/mL | – | – | – | – | – | – | – | – |
| C[C@@]1(C(=O)O)[C@@H](O)CC[C@]2(C)c3cc4c(cc3CC[C@@H]12)[nH]c1c(-n2c3ccccc3c3cc5c(cc32)CC[C@H]2[C@](C)(C(=O)O)[C@@H](O)CC[C@]52C)cccc14 (stereo in doubt; 1) | – | – | – | – | 1.56 µg/mL (≈ 2.15 µM) | > 12.5 µg/mL | > 12.5 µg/mL | 3.12 µg/mL (≈ 4.3 µM) | 6.25 µg/mL (≈ 8.62 µM) | 6.25 µg/mL (≈ 8.62 µM) | 6.25 µg/mL (≈ 8.62 µM) | – | – | – | – |
| C[C@@]1(C(=O)O)[C@@H](O)CC[C@]2(C)c3cc4c(cc3CC[C@@H]12)[nH]c1c(-n2c3ccccc3c3cc5c(cc32)CC[C@H]2[C@](C)(C(=O)O)[C@@H](O)CC[C@]52C)cccc14 (stereo in doubt; 2) | – | – | – | – | – | – | – | 0.78 µg/mL (≈ 1.08 µM) | 3.12 µg/mL (≈ 4.3 µM) | 3.12 µg/mL (≈ 4.3 µM) | 3.12 µg/mL (≈ 4.3 µM) | 1.56 µg/mL (≈ 2.15 µM) | – | – | – |
| C[C@@]1(C(=O)O)[C@@H](O)CC[C@]2(C)c3cc4c5ccccc5n(-c5c6c(cc7c5[nH]c5ccccc57)[C@@]5(C)CC[C@H](O)[C@@](C)(C(=O)O)[C@@H]5CC6)c4cc3CC[C@@H]12 (stereo in doubt; 3) | 6.25 µg/mL (≈ 8.62 µM) | > 12.5 µg/mL | 12.5 µg/mL (≈ 17.2 µM) | > 12.5 µg/mL | 6.25 µg/mL (≈ 8.62 µM) | > 12.5 µg/mL | > 12.5 µg/mL | – | – | – | – | – | – | – | – |
| C[C@@]1(C(=O)O)[C@@H](O)CC[C@]2(C)c3cc4c5ccccc5n(-c5c6c(cc7c5[nH]c5ccccc57)[C@@]5(C)CC[C@H](O)[C@@](C)(C(=O)O)[C@@H]5CC6)c4cc3CC[C@@H]12 (stereo in doubt; 4) | – | – | – | – | – | – | – | >12.5 µg/mL | – | >12.5 µg/mL | – | – | >12.5 µg/mL | – | – |
| C[C@@]1(C(=O)O)[C@@H](O)CC[C@]2(C)c3cc4c5ccccc5n(-n5c6ccccc6c6cc7c(cc65)CC[C@H]5[C@](C)(C(=O)O)[C@@H](O)CC[C@]75C)c4cc3CC[C@@H]12 (stereo in doubt; 5) | 3.12 µg/mL (≈ 4.3 µM) | – | 3.12 µg/mL (≈ 4.3 µM) | 6.25 µg/mL (≈ 8.62 µM) | – | > 12.5 µg/mL | > 12.5 µg/mL | – | 6.25 µg/mL (≈ 8.62 µM) | – | – | – | 3.12 µg/mL (≈ 4.3 µM) | – | – |
| C[C@@]1(C(=O)O)[C@@H](O)CC[C@]2(C)c3cc4c5ccccc5n(-n5c6ccccc6c6cc7c(cc65)CC[C@H]5[C@](C)(C(=O)O)[C@@H](O)CC[C@]75C)c4cc3CC[C@@H]12 (stereo in doubt; 6) | – | – | – | – | – | – | – | 1.56 µg/mL (≈ 2.15 µM) | 1.56 µg/mL (≈ 2.15 µM) | 1.56 µg/mL (≈ 2.15 µM) | – | – | 0.78 µg/mL (≈ 1.08 µM) | 6.25 µg/mL (≈ 8.62 µM) | – |
| CN(C)[C@@H]1C(O)=C(C(N)=O)C(=O)[C@@]2(O)C(O)=C3C(=O)c4c(O)cccc4[C@@](C)(O)[C@H]3C[C@@H]12 [TETRACYCLINE] | – | > 25 µg/mL | 1.56 µg/mL (≈ 3.51 µM) | 6.25 µg/mL (≈ 14.1 µM) | 12.5 µg/mL (≈ 28.1 µM) | 1.56 µg/mL (≈ 3.51 µM) | > 25 µg/mL | – | – | – | – | – | – | – | 6.25 µg/mL (≈ 14.1 µM) |
